In patent publication US11591355B2 (Peloton Therapeutics, Inc., priority 2017, dated 2023) one finds IC50 data, which are given here for 10 compounds.

pIC50: −log10 of the molar value.

One assay has as its target T1, Human CD73 (Homo sapiens, UniProt P21589).
T1 construct: purchased R&D Systems; host or cells: CHO cells
T1 sequence (P21589 27-549): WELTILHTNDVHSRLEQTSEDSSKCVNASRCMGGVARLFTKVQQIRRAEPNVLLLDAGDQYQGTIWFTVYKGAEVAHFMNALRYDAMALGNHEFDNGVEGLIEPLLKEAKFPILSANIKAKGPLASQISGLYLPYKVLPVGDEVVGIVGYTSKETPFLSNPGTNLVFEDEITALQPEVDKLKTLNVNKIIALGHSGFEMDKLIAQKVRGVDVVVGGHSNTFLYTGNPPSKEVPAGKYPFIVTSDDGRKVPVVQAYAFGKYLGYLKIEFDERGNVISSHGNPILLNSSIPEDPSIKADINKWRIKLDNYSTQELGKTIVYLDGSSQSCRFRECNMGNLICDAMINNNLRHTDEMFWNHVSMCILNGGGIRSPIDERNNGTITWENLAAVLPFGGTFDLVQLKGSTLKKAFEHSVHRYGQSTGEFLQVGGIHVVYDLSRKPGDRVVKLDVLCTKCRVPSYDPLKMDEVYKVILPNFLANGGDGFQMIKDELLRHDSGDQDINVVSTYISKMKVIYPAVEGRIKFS
Put plainly: CD73 Enzyme Assay. Format: biochemical.
Conditions: not given
As usually defined, the pIC50 is the negative decadic logarithm of the IC50, by convention in mol/L. With `CCOP(=O)(O)COC[C@H]1O[C@@H](n2cnc3c(NCc4ccccc4)ncnc32)[C@H](O)[C@@H]1O` [Compound 7, [(2R,3S,4R,5R)-5-[6-(benzylamino)purin-9-yl]-3,4-dihydroxy-tetrahydrofuran-2-yl]-methoxymethyl-ethoxy-phosphinic acid], the pIC50 is less than 6.00. The same measure, in the same setting: as for `O=P(COC[C@H]1O[C@@H](n2ccc3c(NC4CCCC4)nc(Cl)nc32)[C@H](O)[C@@H]1O)(Oc1ccccc1)Oc1ccccc1` [Compound 215], the figure is less than 6.00.

Still in this assay, the particulars now being: 0.25 nM hCD73, 25 μM AMP, kinetic read at 360 nm; read-out: CD73 Enzyme Assay IC50.
Take `CC(C)Oc1ncnc2c1ncn2[C@@H]1O[C@H](COCP(=O)(O)O)[C@@H](O)[C@H]1O` [Compound 44, [(2R,3S,4R,5R)-3,4-dihydroxy-5-(6-isopropoxypurin-9-yl)tetrahydrofuran-2-yl]methoxymethylphosphonic acid]: the pIC50 was less than 6.00. The same measure, in the same setting: as for `CCc1nc(NC(C)C)c2ncn([C@@H]3O[C@H](COCP(=O)(O)O)[C@@H](O)[C@H]3O)c2n1` [Compound 41, [(2R,3S,4R,5R)-5-[2-ethyl-6-(isopropyl-amino)purin-9-yl]-3,4-dihydroxy-tetrahydro-furan-2-yl]methoxy-methylphosphonic acid], the figure is less than 6.00. In the case of `CCCCCCCCCCCCCCCCOCCCOP(=O)(O)COC[C@H]1O[C@@H](n2ccc3c(NC4CCCC4)nc(Cl)nc32)[C@H](O)[C@@H]1O` [Compound 246, [(2R,3S,4R,5R)-5-[2-chloro-4-(cyclopentyl-amino)pyrrolo[2,3-d]-pyrimidin-7-yl]-3,4-dihydroxy-tetrahydro-furan-2-yl]methoxy-methyl-(3-hexadecoxy-propoxy)phosphinic acid], the pIC50 was less than 6.00. With `CC(C)OC(=O)OCOP(=O)(COC[C@H]1O[C@@H](n2ccc3c(N4CC5CCCC5C4)nc(Cl)nc32)[C@H](O)[C@@H]1O)OCOC(=O)OC(C)C` (stereo partly drawn) [Compound 208, [[(2R,3S,4R,5R)-5-[4-(3,3a,4,5,6,6a-hexa-hydro-1H-cyclopenta-[c]pyrrol-2-yl)-2-chloro-pyrrolo[2,3-d]-pyrimidin-7-yl]-3,4-dihydroxy-tetrahydro-furan-2-yl]methoxy-methyl-(isopropoxy-carbonyloxymethoxy)-phosphorl]oxymethyl isopropyl carbonate], the pIC50 is less than 6.00.

In the case of `Cc1oc(=O)oc1COP(=O)(O)COC[C@H]1O[C@@H](n2ccc3c(NC4CCCC4)nc(Cl)nc32)[C@H](O)[C@@H]1O` [Compound 225, [(2R,3S,4R,5R)-5-[2-chloro-4-(cyclopentyl-amino)pyrrolo[2,3-d]-pyrimidin-7-yl]-3,4-dihydroxy-tetrahydro-furan-2-yl]methoxy-methyl-[(5-methyl-2-oxo-1,3-dioxol-4-yl)-methoxy]phosphinic acid], the pIC50 is 7.00 to 8.00. On the same count and under the same terms, the value for `C=Cc1nc(NC(C)C)c2ncn([C@@H]3O[C@H](COCP(=O)(O)O)[C@@H](O)[C@H]3O)c2n1` [Compound 40, [(2R,3S,4R,5R)-3,4-dihydroxy-5-[6-(iso-propylamino)-2-vinyl-purin-9-yl]tetrahydro-furan-2-yl]methoxy-methylphosphonic acid] was 6.00 to 7.00. Regarding `CN(C)CCOc1nc(NC2CCCC2)c2ccn([C@@H]3O[C@H](COCP(=O)(O)O)[C@@H](O)[C@H]3O)c2n1` [Compound 259, [(2R,3S,4R,5R)-5-[4-(cyclopentylamino)-2-[2-(dimethylamino)-ethoxy]pyrrolo[2,3-d]-pyrimidin-7-yl]-3,4-dihydroxy-tetrahydro-furan-2-yl]methoxy-methylphosphonic acid], the pIC50 was 6.00 to 7.00. For the compound `O=P(O)(O)CP(=O)(O)OC[C@H]1O[C@@H](n2cnc3c(NC4CCCC4)nc(Cl)nc32)[C@H](O)[C@@H]1O` [Compound 282, [[(2R,3S,4R,5R)-5-[2-chloro-6-(cyclopentyl-amino)purin-9-yl]-3,4-dihydroxy-tetrahydro-furan-2-yl]methoxy-hydroxy-phosphoryl]-methylphosphonic acid], the pIC50 was more than 8.00.
